Data as given in US9499519B2, “Fused pyrimidine compounds and use thereof” (Medivation Technologies, Inc., priority 2012, dated 2016).
Where two headings read alike, the source gives them in different places.

Tests used:
IGF-1R = molecular target: T1, IGF-1R (Homo sapiens, UniProt P08069); assay: In vitro IGF-1R enzymatic assay (ADP-Glo kinase assay); assay type: biochemical; details: activated IGF-1R
T1 construct: purchased Millipore 14-802
Description: (§1) IC50 values of the compounds of the invention against IGF-1R and IR were measured in vitro using an ADP-Glo kinase assay Kit (Promega). […] Kinase reactions in both assays were conducted at 30° C. for 20 min with increasing concentrations of compounds of the invention.
Additional compounds of the invention were screened against activated IGF-1R.

NTRK2(TRKB) = NTRK2(TRKB) (Homo sapiens, UniProt Q16620); assay: Caliper kinase assay: NTRK2 (TRKB); details: Trk B, 0.01 μM
Sequence of NTRK2(TRKB) (Q16620 32-822): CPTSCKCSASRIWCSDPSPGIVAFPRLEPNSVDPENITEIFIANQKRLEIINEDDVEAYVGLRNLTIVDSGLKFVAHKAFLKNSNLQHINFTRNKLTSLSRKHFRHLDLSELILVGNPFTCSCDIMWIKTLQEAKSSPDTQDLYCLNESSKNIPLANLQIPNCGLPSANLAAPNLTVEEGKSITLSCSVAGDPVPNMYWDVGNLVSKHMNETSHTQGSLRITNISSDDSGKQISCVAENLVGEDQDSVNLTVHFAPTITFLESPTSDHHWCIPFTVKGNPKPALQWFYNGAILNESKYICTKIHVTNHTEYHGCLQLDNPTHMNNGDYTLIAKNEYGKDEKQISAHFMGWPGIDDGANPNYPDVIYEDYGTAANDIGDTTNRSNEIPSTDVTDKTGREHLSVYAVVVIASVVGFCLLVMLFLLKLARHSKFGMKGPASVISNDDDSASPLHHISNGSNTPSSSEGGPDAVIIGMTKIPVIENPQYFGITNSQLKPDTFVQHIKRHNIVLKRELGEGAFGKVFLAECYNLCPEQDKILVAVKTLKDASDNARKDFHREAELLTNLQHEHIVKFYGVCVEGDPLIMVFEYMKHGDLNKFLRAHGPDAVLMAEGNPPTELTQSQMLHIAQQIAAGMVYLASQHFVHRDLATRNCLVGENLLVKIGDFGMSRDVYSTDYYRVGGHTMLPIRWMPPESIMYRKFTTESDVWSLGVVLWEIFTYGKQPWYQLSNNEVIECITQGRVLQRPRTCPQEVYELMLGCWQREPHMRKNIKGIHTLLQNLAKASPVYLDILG
Description: (§6) The compound was tested at concentrations of 1.0×10^−8 and 1.0×10^−9 M in the RapidKinase192™ panel in duplicate. […] The screening was performed using the Caliper EZReader2, a 4-sipper LabChip, and ProfilerPro Kinase Selectivity Assay Kits 1 and 2. The assay measures the conversion of a fluorescent peptide substrate to a phosphorylated product. Briefly, the reaction mixture was introduced through a capillary sipper onto the microfluidic chip, where the substrate and product were electrophoretically separated and detected by laser-induced fluorescence. The time-dependent fluorescence signal indicates the extent of the reaction.
(§7) The kinases tested were AurA, AurB, AurC, AXL, FAK2, IGF1R, InsR, Mer, MET, Trk B and Trk C.
(§8) The assays were conducted using the Caliper LabChip 3000 and a 12-sipper LabChip as described above.

[1] = system: Akt phosphorylation induced by IGF-1R; assay: Western blot analysis of Akt phosphorylation induced by IGF-1 in HT-29 cells; assay type: cell-based, Human; details: for Levels of phosphorylated AKT in treated cells (pAKT/actin): HT-29 cells, IGF-1; for p-AKT relative to levels with 0.1 nM compound: Table B2 lower part; for Normalized phosphorylated AKT (relative to actin) levels relative to 0.1 nM compound treatment: Table B2 upper part; for pAKT relative to 0.1 nM compound: derivatives of Cpd. No. 8b
Method in brief: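 HT-29 cells grown 24 h in DME/F12 with 10% FBS, serum-starved 24 h, then exposed 2 h to compound at 0.1, 1, 10 or 100; controls received DMSO or 10 ng/mL IGF-1. Lysate soluble fractions quantified by BCA before western blotting for phospho-Akt.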

TRKC(NTRK3) = TRKC(NTRK3) (Homo sapiens, UniProt Q16288); assay: Caliper kinase assay: TRKC (NTRK3); details: Trk C, 0.01 μM
Sequence of TRKC(NTRK3) (Q16288 32-839): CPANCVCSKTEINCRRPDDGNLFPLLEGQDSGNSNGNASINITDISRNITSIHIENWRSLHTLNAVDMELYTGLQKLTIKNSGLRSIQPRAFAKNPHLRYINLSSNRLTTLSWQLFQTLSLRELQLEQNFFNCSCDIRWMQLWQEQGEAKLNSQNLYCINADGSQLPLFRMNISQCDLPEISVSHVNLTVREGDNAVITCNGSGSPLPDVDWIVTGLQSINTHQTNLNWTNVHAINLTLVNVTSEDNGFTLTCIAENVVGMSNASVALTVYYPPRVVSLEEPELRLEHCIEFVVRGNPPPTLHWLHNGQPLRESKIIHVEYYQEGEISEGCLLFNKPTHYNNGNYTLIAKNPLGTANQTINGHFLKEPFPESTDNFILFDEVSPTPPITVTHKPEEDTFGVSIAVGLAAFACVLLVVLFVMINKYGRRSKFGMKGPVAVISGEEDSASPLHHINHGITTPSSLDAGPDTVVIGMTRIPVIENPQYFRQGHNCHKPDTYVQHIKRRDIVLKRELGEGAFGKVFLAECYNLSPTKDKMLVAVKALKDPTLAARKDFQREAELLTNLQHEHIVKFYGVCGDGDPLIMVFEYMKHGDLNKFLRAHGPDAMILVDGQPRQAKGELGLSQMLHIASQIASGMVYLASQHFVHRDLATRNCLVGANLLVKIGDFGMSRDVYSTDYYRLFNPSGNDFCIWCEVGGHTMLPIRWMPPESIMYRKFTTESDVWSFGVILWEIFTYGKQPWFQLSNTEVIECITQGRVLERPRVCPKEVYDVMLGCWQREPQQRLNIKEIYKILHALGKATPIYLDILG
Description: as §6, §7, §8

AXL = molecular target: T2, AXL (Homo sapiens, UniProt P30530); assay: Caliper kinase assay: AXL; details: 0.01 μM
T2 sequence (P30530 26-894): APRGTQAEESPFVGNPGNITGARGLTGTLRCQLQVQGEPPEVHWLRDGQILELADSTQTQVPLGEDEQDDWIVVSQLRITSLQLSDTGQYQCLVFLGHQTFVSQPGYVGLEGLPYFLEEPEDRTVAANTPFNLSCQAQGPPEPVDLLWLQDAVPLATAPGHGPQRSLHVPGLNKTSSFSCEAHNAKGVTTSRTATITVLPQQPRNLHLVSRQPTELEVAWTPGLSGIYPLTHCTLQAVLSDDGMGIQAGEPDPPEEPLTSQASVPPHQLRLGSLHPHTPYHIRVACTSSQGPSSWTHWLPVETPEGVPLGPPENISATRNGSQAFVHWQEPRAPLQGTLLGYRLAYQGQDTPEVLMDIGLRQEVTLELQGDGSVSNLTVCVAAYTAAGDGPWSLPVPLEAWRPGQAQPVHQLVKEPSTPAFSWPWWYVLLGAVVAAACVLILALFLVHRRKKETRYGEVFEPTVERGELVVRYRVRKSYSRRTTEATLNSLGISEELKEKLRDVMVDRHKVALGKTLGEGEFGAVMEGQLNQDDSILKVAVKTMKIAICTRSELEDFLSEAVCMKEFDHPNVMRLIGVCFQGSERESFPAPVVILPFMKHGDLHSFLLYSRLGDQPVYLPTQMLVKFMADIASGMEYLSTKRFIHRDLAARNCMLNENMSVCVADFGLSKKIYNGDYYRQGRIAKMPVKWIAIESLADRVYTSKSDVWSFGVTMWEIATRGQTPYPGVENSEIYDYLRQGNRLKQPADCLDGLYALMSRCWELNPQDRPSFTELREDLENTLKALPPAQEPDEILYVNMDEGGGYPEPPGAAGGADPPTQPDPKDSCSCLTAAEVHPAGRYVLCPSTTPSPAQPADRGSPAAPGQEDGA
Description: as §6, §7, §8

PYK2 = PYK2 (Homo sapiens, UniProt Q14289); assay: Caliper kinase assay: PYK2 (called FAK2); details: FAK2, 0.01 μM
Description: as §6, §7, §8

IR = molecular target: T3, IR (Homo sapiens, UniProt P06213); assay: In vitro IR enzymatic assay (ADP-Glo kinase assay); assay type: biochemical; details: activated IR; for inhibition at 0.03 µM: 30 nM
T3 construct: purchased Millipore 14-803
T3 sequence (P06213 28-1382): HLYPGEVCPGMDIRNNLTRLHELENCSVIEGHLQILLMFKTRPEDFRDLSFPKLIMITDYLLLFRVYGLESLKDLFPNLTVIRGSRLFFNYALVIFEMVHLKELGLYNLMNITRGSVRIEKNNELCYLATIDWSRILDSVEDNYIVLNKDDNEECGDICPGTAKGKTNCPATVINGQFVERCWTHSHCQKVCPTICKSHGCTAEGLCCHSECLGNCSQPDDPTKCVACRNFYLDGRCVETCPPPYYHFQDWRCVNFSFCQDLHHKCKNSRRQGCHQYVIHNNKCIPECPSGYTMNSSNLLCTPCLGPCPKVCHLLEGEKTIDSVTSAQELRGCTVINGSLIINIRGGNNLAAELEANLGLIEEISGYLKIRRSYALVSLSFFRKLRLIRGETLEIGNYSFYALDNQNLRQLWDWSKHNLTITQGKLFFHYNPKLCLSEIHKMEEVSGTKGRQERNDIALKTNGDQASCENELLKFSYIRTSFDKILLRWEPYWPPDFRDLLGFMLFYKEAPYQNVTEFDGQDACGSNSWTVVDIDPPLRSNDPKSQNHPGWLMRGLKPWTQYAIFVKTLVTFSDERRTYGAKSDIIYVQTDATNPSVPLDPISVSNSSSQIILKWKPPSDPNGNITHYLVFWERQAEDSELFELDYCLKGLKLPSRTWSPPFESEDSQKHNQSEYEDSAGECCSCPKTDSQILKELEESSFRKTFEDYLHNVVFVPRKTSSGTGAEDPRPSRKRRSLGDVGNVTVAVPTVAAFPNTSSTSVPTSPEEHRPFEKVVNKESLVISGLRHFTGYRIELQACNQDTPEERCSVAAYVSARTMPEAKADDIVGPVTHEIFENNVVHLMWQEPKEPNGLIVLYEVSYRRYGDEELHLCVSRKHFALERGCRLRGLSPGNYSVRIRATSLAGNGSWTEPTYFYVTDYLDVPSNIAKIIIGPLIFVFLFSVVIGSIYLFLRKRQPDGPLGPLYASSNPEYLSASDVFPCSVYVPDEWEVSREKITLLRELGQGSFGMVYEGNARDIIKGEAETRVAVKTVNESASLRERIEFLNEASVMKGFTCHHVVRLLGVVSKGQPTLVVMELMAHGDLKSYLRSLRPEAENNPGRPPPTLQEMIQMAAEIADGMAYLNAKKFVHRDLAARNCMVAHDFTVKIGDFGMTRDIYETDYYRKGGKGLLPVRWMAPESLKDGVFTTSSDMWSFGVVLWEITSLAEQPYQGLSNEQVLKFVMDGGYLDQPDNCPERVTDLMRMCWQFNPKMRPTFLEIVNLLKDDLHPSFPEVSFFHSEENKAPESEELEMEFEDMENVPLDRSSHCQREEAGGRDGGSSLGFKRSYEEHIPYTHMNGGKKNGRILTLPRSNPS
Description: as §1
Additional compounds of the invention were screened against activated IR.

MDA MB175 = assay: Cell Titer-Glo cell viability: MDA MB175; assay type: cell-based; details: MDA-MB-175, any concentration tested, 3 μM maximum
Description: (§2) Compound nos. […] This panel of cell lines includes an ER− breast carcinoma, primary breast ductal carcinoma, prostate adenocarcinoma, mammary adenocarcinoma, mammary ductal carcinoma, mammary ductal carcinoma, ovary adenocarcinoma, ER+ breast carcinoma, ER− HER2+ mammary ductal carcinoma and an ER+ mammary ductal carcinoma, respectively.
(§3) This assay quantitates the ATP present in order to determine the number of viable cells in culture. Briefly, the compounds were incubated with the cells for 72 h, followed by cell lysis. The resulting luminescent signal is proportional to the amount of ATP present and, therefore, directly proportional to the number of cells present in culture.
(§4) Compounds 2b, 5, 6b and 10a were tested along with derivatives in viability assays as described above by Caliper LifeSciences Systems (Hanover, Md.), in A549, HCT-15, HCT-116, MCF-7, MDA-MB-231, OVCAR3, T47D, COLO205, HT-29, BT-20, HCC1187, HL-60, MDA-MB-175, SW-620, and UACC812 cells.
(§5) The inhibitory effects of Compound 8a were tested in two cell lines.

UACC 812 = assay: Cell Titer-Glo cell viability: UACC 812; assay type: cell-based; details: UACC812, any concentration tested, 3 μM maximum
Description: as §2, §3, §4, §5

[2] = 30 nM, average, read-out: % Inh @ 30 nM Avg
[3] = average, read-out: % Inh @ 30 nM Avg

T1 sequence (P08069 31-1367): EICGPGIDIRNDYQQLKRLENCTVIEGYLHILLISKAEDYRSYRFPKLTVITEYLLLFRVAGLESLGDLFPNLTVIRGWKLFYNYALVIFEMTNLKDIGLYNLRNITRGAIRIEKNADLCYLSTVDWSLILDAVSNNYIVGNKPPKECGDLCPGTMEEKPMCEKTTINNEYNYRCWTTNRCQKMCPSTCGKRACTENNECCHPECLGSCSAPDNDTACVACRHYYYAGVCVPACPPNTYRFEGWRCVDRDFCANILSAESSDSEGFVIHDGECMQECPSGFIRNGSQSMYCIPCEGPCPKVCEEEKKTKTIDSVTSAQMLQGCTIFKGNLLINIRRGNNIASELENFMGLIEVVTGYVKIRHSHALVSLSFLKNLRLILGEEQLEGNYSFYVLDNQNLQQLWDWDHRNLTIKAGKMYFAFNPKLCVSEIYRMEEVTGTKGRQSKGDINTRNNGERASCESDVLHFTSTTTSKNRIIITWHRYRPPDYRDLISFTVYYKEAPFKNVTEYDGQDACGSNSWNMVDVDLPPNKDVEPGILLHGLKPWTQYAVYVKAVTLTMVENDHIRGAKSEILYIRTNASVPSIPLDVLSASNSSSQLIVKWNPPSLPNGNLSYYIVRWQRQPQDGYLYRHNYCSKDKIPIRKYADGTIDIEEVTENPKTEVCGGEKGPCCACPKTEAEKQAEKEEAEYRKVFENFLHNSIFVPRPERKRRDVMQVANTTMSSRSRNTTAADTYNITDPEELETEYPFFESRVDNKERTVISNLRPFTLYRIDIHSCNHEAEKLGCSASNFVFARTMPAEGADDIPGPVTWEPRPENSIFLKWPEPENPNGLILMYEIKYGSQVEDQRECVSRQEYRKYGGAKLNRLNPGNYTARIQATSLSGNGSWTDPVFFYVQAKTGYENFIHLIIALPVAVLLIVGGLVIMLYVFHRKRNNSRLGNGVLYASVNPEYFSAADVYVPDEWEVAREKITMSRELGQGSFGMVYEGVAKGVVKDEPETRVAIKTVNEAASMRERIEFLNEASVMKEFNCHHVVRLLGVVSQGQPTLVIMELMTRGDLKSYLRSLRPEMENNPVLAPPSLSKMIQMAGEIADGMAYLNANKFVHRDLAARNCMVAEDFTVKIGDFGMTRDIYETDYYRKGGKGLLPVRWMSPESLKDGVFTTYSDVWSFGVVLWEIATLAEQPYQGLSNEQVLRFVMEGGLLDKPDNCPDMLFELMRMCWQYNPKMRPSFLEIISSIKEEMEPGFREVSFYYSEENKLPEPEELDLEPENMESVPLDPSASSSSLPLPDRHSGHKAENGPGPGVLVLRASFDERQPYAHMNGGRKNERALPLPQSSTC

| inhibition at 0.03 µM (IGF-1R; [2]) [%] | inhibition of kinase (NTRK2(TRKB)) | inhibition of kinase (TRKC(NTRK3)) | inhibition of kinase (AXL) | inhibition of kinase (PYK2) | SMILES | Levels of phosphorylated AKT in treated cells (pAKT/actin) ([1]; 0.1 nM compound) | p-AKT relative to levels with 0.1 nM compound ([1]; 0.1 nM) | Normalized phosphorylated AKT (relative to actin) levels relative to 0.1 nM compound treatment ([1]; 0.1 nM) | pAKT relative to 0.1 nM compound ([1]; 0.1 nM) | Levels of phosphorylated AKT in treated cells (pAKT/actin) ([1]; 1 nM compound) | p-AKT relative to levels with 0.1 nM compound ([1]; 1 nM) | Normalized phosphorylated AKT (relative to actin) levels relative to 0.1 nM compound treatment ([1]; 1 nM) | pAKT relative to 0.1 nM compound ([1]; 1 nM) | Levels of phosphorylated AKT in treated cells (pAKT/actin) ([1]; 10 nM compound) | p-AKT relative to levels with 0.1 nM compound ([1]; 10 nM) | pAKT relative to 0.1 nM compound ([1]; 10 nM) | Levels of phosphorylated AKT in treated cells (pAKT/actin) ([1]; 100 nM compound) | p-AKT relative to levels with 0.1 nM compound ([1]; 100 nM) | Normalized phosphorylated AKT (relative to actin) levels relative to 0.1 nM compound treatment ([1]; 100 nM) | pAKT relative to 0.1 nM compound ([1]; 100 nM) | also measured |
| --- | --- | --- | --- | --- | --- | --- | --- | --- | --- | --- | --- | --- | --- | --- | --- | --- | --- | --- | --- | --- | --- |
| 94 | strongly inhibited | strongly inhibited | strongly inhibited | strongly inhibited | O=C(Nc1cnccn1)C1CCCN1c1nc2c(c(Nc3cc(C4CC4)[nH]n3)n1)CCC2 (single isomer, unassigned) [Compound 6b, 1-(4-(3-cyclopropyl-1H-pyrazol-5-ylamino)-6,7-dihydro-5H-cyclopenta[d]pyrimidin-2-yl)-N-(pyrazin-2-yl)pyrrolidine-2-carboxamide] | 0.87 | 1.0 | 1.0 | 1.00 | 0.18 | 0.2 | 0.2 | 0.39 | 0.00 | 0.0 | 0.02 | 0.00 | 0.0 | 0.0 | 0.01 | inhibition at 0.03 µM (IGF-1R; 30 nM, N1, read-out: % Inh @ 30 nM (N1)): 93%; inhibition at 0.03 µM (IGF-1R; 30 nM, N2, read-out: % Inh @ 30 nM (N2)): 95%; inhibition at 0.03 µM (IR; N1, read-out: % Inh @ 30 nM (N1)): 92%; inhibition at 0.03 µM (IR; N2, read-out: % Inh @ 30 nM (N2)): 91%; inhibition at 0.03 µM (IR; [3]): 92% |
| 0 | – | – | – | – | CC(C)c1cc(Nc2nc(N3CCC[C@H]3C(=O)Nc3ccc(F)nc3)nc3c2CCC3)n[nH]1 (single isomer, unassigned) [Compound 8a] | 1.93 | 1.0 | 1.0 | – | 2.27 | 1.2 | 1.2 | – | 1.17 | 0.6 | – | 1.78 | 0.9 | 0.9 | – | proliferation as compared to the untreated control (MDA MB175): ≥ 68%; proliferation as compared to the untreated control (UACC 812): ≥ 68%; Normalized phosphorylated AKT (relative to actin) levels relative to 0.1 nM compound treatment ([1]; 10 nM): 0.6 |
| – | strongly inhibited | strongly inhibited | strongly inhibited | strongly inhibited | O=C(Nc1ccc(F)nc1)C1CC(O)CN1c1nc2c(c(Nc3cc(C4CC4)[nH]n3)n1)CCC2 (racemic) [Compound 10a, (2S,4R)-1-(4-(5-cyclopropyl-1H-pyrazol-3-ylamino)-6,7-dihydro-5H-cyclopenta[d]pyrimidin-2-yl)-N-(6-fluoropyridin-3-yl)-4-hydroxypyrrolidine-2-carboxamide] | 2.28 | 1.0 | 1.0 | 1.00 | 0.54 | 0.2 | 0.2 | 0.69 | 0.00 | 0.0 | 0.16 | 0.01 | 0.0 | 0.0 | 0.01 | IC50 (IGF-1R): 33 nM; % Inh @ 30 nM Avg (IGF-1R; 30 nM, average): 32%; Normalized phosphorylated AKT (relative to actin) levels relative to 0.1 nM compound treatment ([1]; 10 nM): 0.0; IC50 (IR): 33 nM; inhibition at 0.03 µM (IR; [3]): 54% |
